This is an account of results in patent US6355630B1, “Estra-1,3,5(10)-triene-7α-thioethers” (priority 1997, dated 2002).

Values joined by “and” are separate entries in the source; they are usually repeats but may differ in a detail not shown here. Identical values can stand only once. Like-named read-outs stand apart in the source and are kept apart here.

The test system of one experiment is Ishikawa uterine cells. Kind of experiment: Ishikawa cell alkaline phosphatase test procedure. In kind it is cell-based, human. The following applies: for EC50: reference standards, read-out: ED50, estrogenic activity by the alkaline phosphatase method; for Alkaline phosphatase activity, percent of response related to 1 nM 17β-estradiol: 48 h. The procedure: Ishikawa Cell Alkaline Phosphatase Test Procedure
Cell Maintenance and Treatment
Ishikawa cells were maintained in DMEM/F12 (50%:50%) containing phenol red+10% fetal bovine serum and the medium was supplemented with 2 mM Glutamax, 1% Pen/Strap and 1 mM sodium pyruvate. Five days prior to the beginning of each evaluation (treatment of cells) the medium was changed to phenol red-free DMEM/F12+10% dextran coated charcoal stripped serum. On the day before treatment, cells were harvested using 0.5% trypsin/EDTA and plated at a density of 5×10^4 cells/well in 96-well tissue culture plates. […] Cells were treated for 48 h prior to assay. […] Sample population for at each dose was n=8.
Alkaline Phosphatase Test Procedure
At the end of 48 h the media was aspirated and cells were washed three times with phosphate buffered saline (PBS); 50 μL of lysis buffer (0.1 M Tris-HCl, pH 9.8, 0.2% Triton X-100) was added to each well. Plates were placed at −80° C. for a minimum of 15 minutes. Plates were thawed at 37° C. followed by the addition of 150 μL of 0.1 M Tris-HCl, pH 9.8, containing 4 mM para-nitrophenylphosphate (pNPP) to each well (final concentration, 3 mM pNPP).
Absorbance and slope calculations were made using the KineticCalc Application program (Bio-Tek Instruments, Inc., Winooski, Vt.). Results are expressed as the mean +/−S.D. of the rate of enzyme reaction (slope) averaged over the linear portion of the kinetic reaction curve (optical density readings every 5 minutes for 30 minutes absorbance reading).
The four compounds were used as reference standards:
A description of these methods is described by Holinka, C. F., Hata, H., Kuramoto, H. and Gurpide, E. (1986) Effects of steroid hormones and antisteroids on alkaline phosphatase activity in human endometrial cancer cells (Ishikawa Line). Cancer Research, 46:2771-2774, and by Littlefield, B. A., Gurpide, E., Markiewicz, L., McKinley, B. and Hochberg, R. B. (1990) A simple and sensitive microtiter plate estrogen bioassay based on stimulation alkaline phosphatase in Ishikawa cells; Estrogen action of D5 adrenal steroids. Endocrinology, 6:2757-2762.

The test system of the next experiment is rat uterus. As to the kind of experiment: Rat uterotrophic/antiuterotrophic test procedure. The class given is in vivo. The following applies: 1 ug 17β-estradiol, daily ip, 4-day immature rat. The protocol:
Rat Uterotrophic/Antiuterotrophic Test Procedure
The estrogenic and antiestrogenic properties of the compounds were determined in a 4-day immature rat uterotrophic assay (as described previously by L. J. Black and R. L. Goode, Life Sciences, 26, 1453 (1980)). Immature Sprague-Dawley rats (female, 18 days old) were tested in groups of six. […] On day 4 the animals were sacrificed by CO2 asphyxiation and their uteri were removed and stripped of excess lipid, any fluid removed and the wet weight determined. A small section of one horn was submitted for histology and the remainder used to isolate total RNA in order to evaluate complement component 3 gene expression.
Representative compounds of this invention were evaluated in the rat uterotrophic/antiuterotrophic assay to determine their in vivo effects on the rat uterus.

The next experiment has as its target T1, human estrogen receptor (Homo sapiens, UniProt P03372).
T1 construct: expressed in transfected cells; host or cells: Chinese Hamster ovary (CHO) cells; ribosome-free cytosol
T1 sequence (P03372 1-595): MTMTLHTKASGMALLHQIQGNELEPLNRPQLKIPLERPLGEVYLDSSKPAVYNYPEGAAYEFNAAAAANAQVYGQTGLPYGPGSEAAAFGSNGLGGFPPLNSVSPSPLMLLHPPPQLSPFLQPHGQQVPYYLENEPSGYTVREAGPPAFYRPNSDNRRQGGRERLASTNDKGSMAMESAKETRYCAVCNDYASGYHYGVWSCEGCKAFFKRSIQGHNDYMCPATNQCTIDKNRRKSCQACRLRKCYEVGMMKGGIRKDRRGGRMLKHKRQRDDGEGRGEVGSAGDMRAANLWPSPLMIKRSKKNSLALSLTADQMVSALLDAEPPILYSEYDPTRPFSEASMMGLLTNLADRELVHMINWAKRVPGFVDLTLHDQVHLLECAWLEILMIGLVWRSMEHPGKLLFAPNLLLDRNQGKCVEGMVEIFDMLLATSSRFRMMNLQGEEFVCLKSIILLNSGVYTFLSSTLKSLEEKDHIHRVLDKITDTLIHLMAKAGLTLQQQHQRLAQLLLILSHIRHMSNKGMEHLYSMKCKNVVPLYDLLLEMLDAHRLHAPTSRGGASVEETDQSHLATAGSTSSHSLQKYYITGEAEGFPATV
As to the kind of experiment: In vitro estrogen receptor binding test procedure ([3H]-17β-estradiol competition). The protocol: In vitro Estrogen Receptor Binding Test Procedure
Chinese Hamster ovary (CHO) cells overexpressing the estrogen receptor were grown in […] dishes in DMEM+10% dextran coated charcoal, stripped fetal bovine serum. The plates were washed twice with PBS and once with 10 mM Tris-HCl, pH 7.4, 1 mM EDTA. Cells were harvested by scraping the surface and then the cell suspension was placed on ice. Cells were disrupted with a hand-held motorized tissue grinder using two, 10-second bursts. The crude preparation was centrifuged at 12,000 g for 20 minutes followed by a 60 minute spin at 100,000 G to produce a ribosome free cytosol. The cytosol was then frozen and stored at −80° C. Protein concentration of the cytosol was estimated using the BCA assay with reference standard protein.
Binding Test Procedure Conditions
100 uG/100 uL of the receptor preparation was aliquoted per well. […] The plate was incubated at room temperature for 2.5 h. At the end of this incubation period 150 uL of ice-cold dextran coated charcoal (5% activated charcoal coated with 0.05% 69K dextran) was added to each well and the plate was immediately centrifuged at 99 g for 5 minutes at 4° C. 200 uL of the supernatant solution was then removed for scintillation counting. Samples were counted to 2% or 10 minutes, whichever occurs first. […] Also, wells containing radioactivity but no cytosol were processed with charcoal to estimate unremovable DPM of [^3H] […] 96-well plates were used because they have proven to bind the least amount of estradiol.
Counts per minute (CPM) of radioactivity were automatically converted to disintegrated per minute (DPM) by the Beckman LS 7500 Scintillation Counter using a set of quenched standards to generate a H# for each sample. To calculate the % of estradiol binding in the presence of 100 or 500 fold competitor the following formula was applied:
((DPM sample−DPM not removed by charcoal/(DPM estradiol−DPM not removed by charcoal))×100%=% of estradiol binding
For the generation of IC50 curves, % binding is plotted vs compound. […] Values are reported as IC50 values. […] For a description of these methods, see Hulme, E. C., ed. 1992. Receptor-Ligand Interactions: A Practical Approach. IRL Press, New York.(see especially chapter 8).
Compounds were tested for their ability to displace estradiol in a human ER-receptor preparation as described above.

The mark [1] stands for this setting: 1 uM compound + 1 nM E2, antagonist mode.

Consider `C[C@]12CC[C@@H]3c4ccc(O)cc4CC[C@H]3[C@@H]1CC[C@H]2O` [17α-estradiol, reference compound], for which, in the experiment with Ishikawa uterine cells, the EC50 is 1.42 nM.
With `C[C@]12CC[C@@H]3c4ccc(O)cc4CC[C@H]3[C@@H]1CC[C@@H]2O` [17β-estradiol, reference compound], in the experiment with rat uterus, the Uterine wet weight is 87.6 mg and 82.1 mg and 92.6 mg and 83.8 mg and 94.6 mg. The EC50 in the experiment on Ishikawa uterine cells (Homo sapiens, Ishikawa) amounted to 0.03 nM.
As to `CC(=O)O[C@H]1CC[C@H]2[C@@H]3[C@H](Sc4ccc(O)cc4)C(=O)c4cc(O)ccc4[C@H]3CC[C@]12C` [Example 1, (7α,17β) 17-Acetoxy-3-hydroxy-7-(4-hydroxyphenyl)thio-estra-1,3,5(10)-triene-6-one], the “Alkaline phosphatase activity, percent of response related to 1 nM 17β-estradiol” value (shortened to “Alkaline phosphatase activity, percent”) in the experiment with Ishikawa uterine cells (0.01 uM compound, agonist mode) is 7%; in the experiment on Ishikawa uterine cells (0.1 uM compound, agonist mode), 9%; in the experiment on Ishikawa uterine cells (setting [1]) it was 76%; in the experiment on Ishikawa uterine cells (1 uM compound, agonist mode) it was 29%.
With `CC(=O)O[C@H]1CC[C@H]2[C@@H]3[C@H](Sc4ccc(Br)cc4)C(=O)c4cc(O)ccc4[C@H]3CC[C@]12C` [Example 5, (7α,17β) 17-Acetoxy-7-(4-bromophenyl)thio-3-hydroxy-estra-1,3,5(10)-trien-6-one], the “Alkaline phosphatase activity, percent” value in the experiment on Ishikawa uterine cells (0.01 uM compound, agonist mode) stood at 58%; with Ishikawa uterine cells (0.1 uM compound, agonist mode), 108%; in the experiment on Ishikawa uterine cells (setting [1]), 106%; with Ishikawa uterine cells (1 uM compound, agonist mode) it was 104%. Also, the “Behaviour in the uterine cell line (agonist/antagonist)” value in the experiment with Ishikawa uterine cells (in words, from Table 2) is “fully efficacious agonists”.
Molecule `C[C@]12CC[C@@H]3c4ccc(O)cc4[C@@H](O)[C@@H](Sc4ccc(Br)cc4)[C@H]3[C@@H]1CC[C@@H]2O` [Example 7, (6α,7α,17β) 7-(4-Bromophenyl)thio-estra-1,3,5(10)-triene-3,6,17-triol] had an IC50 at human estrogen receptor of 800 nM. Further, the “Alkaline phosphatase activity, percent” value was determined as 46% in the experiment on Ishikawa uterine cells (0.01 uM compound, agonist mode); 58% in the experiment with Ishikawa uterine cells (0.1 uM compound, agonist mode); 98% in the experiment on Ishikawa uterine cells (setting [1]); 66% in the experiment on Ishikawa uterine cells (1 uM compound, agonist mode).
As for `COC(=O)C=Cc1ccc(S[C@@H]2Cc3cc(O)ccc3[C@H]3CC[C@]4(C)[C@@H](OC(C)=O)CC[C@H]4[C@@H]32)cc1` [Example 9, (7α,17β) 7-{4-[2-(Methoxycarbonyl)-ethenyl]phenyl}thio-estra-1,3,5(10)-triene-3,17-diol-17-acetate], the “Receptor IC50” value at human estrogen receptor (displacement of [3H]17β-estradiol, CHO cell cytosol ER preparation) is listed as “No Binding”. Also, the “Competition for the human estrogen receptor” value at human estrogen receptor (in words, compounds with 17β-acetate) was “competed less effectively”. Further, the “Alkaline phosphatase activity, percent” value in the experiment on Ishikawa uterine cells (0.01 uM compound, agonist mode) was determined as 1%; in the experiment on Ishikawa uterine cells (0.1 uM compound, agonist mode), 33%; in the experiment with Ishikawa uterine cells (setting [1]) it was 59%; in the experiment on Ishikawa uterine cells (1 uM compound, agonist mode), 61%.
Regarding `CN(C)C(=O)/C=C/c1ccc(S[C@@H]2Cc3cc(O)ccc3[C@H]3CC[C@]4(C)[C@@H](O)CC[C@H]4[C@@H]32)cc1` [Example 10, (7α,17β) 7-{4-[(E)-2-(N,N-Dimethylcarbamoyl)-ethenyl]phenyl}thio-estra-1,3,5(10)-triene-3,17-diol], the “Alkaline phosphatase activity, percent” value in the experiment with Ishikawa uterine cells (0.01 uM compound, agonist mode) is on record as 0%; with Ishikawa uterine cells (0.1 uM compound, agonist mode), 12%; in the experiment on Ishikawa uterine cells (setting [1]) it was 57%; in the experiment with Ishikawa uterine cells (1 uM compound, agonist mode), 28%.
Molecule `C[C@]12CC[C@@H]3c4ccc(O)cc4C[C@@H](Sc4ccc(C=CC(=O)O)cc4)[C@H]3[C@@H]1CC[C@@H]2O` [Example 11, (7α,17β) 7-{4-[2-(Carboxy)-ethenyl]phenyl}thio-estra-1,3,5(10)-triene-3,17-diol] yielded an IC50 on human estrogen receptor of 1500 nM. Further, the “Alkaline phosphatase activity, percent” value turned out to be 0% with Ishikawa uterine cells (0.01 uM compound, agonist mode); 23% in the experiment with Ishikawa uterine cells (0.1 uM compound, agonist mode); 50% in the experiment on Ishikawa uterine cells (setting [1]); 21% in the experiment on Ishikawa uterine cells (1 uM compound, agonist mode).
On to `CC12CCC3c4ccc(O)cc4CC(Sc4ccc(-c5ccc(C=O)cc5)cc4)C3C1CCC2O` (stereo not drawn) [Example 12, (7α,17β) 7-(4-(4′-Formylbiphenyl)]thio-estra-1,3,5(10)-triene-3,17-diol], for which the half-inhibitory concentration (IC50) at human estrogen receptor (read-out: Receptor IC50) was determined as 300 nM. The “Alkaline phosphatase activity, percent” value with Ishikawa uterine cells (0.01 uM compound, agonist mode) is 17%; with Ishikawa uterine cells (0.1 uM compound, agonist mode), 67%; with Ishikawa uterine cells (setting [1]), 92%; with Ishikawa uterine cells (1 uM compound, agonist mode), 89%.
Regarding `COc1ccc2c(c1)CC(Sc1ccc(OCCN3CCCCC3)cc1)C1C2CCC2(C)C(O)CCC12` (stereo not drawn) [Example 15, (7α,17β) 3-Methoxy-7-{4-[2-(piperdin-1-yl)]ethoxyphenyl}thio-estra-1,3,5(10)-triene-17-ol], the “Alkaline phosphatase activity, percent” value with Ishikawa uterine cells (0.01 uM compound, agonist mode) worked out at 0%; in the experiment on Ishikawa uterine cells (0.1 uM compound, agonist mode) it was 0%; with Ishikawa uterine cells (setting [1]), 69%; in the experiment on Ishikawa uterine cells (1 uM compound, agonist mode) it was 22%.
For `C[C@]12CC[C@@H]3c4ccc(O)cc4CC[C@H]3[C@@H]1C[C@@H](O)[C@@H]2O` [estriol, reference compound], the EC50 with Ishikawa uterine cells (Homo sapiens, Ishikawa) came out at 0.13 nM.
With `C[C@]12CC[C@@H]3c4ccc(O)cc4CC[C@H]3[C@@H]1CCC2=O` [estrone, reference compound], the EC50 with Ishikawa uterine cells (Homo sapiens, Ishikawa) is 0.36 nM.

By IC50 is commonly meant the midpoint of a concentration-inhibition curve.
